{"source": "patent US9340554B2", "about": "“IRAK inhibitors and uses thereof” (Nimbus Iris, Inc., priority 2011, dated 2016)", "molecular_target": "T1, IRAK4 (Homo sapiens, UniProt Q9NWZ3)", "T1 construct": "purchased CARNA Bioscience 09-145", "T1 sequence (Q9NWZ3 1-460)": "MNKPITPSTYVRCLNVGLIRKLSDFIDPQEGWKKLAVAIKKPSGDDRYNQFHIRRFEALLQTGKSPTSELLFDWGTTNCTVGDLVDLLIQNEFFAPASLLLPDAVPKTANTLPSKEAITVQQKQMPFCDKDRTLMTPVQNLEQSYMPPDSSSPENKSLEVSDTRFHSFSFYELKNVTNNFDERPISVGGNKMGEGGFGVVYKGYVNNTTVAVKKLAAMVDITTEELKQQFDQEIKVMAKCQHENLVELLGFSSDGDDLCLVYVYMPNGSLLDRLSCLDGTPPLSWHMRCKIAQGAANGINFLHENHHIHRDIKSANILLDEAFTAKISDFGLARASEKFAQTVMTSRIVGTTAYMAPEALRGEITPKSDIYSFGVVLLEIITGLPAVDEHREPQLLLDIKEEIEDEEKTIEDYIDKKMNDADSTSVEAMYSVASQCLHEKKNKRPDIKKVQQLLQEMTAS", "experiment": "IRAK-4 activity inhibition assay (Caliper, Peptide 8, 37 μM ATP)", "format": "biochemical", "settings": "3.5 nM IRAK4, 1.5 μM Peptide 8, 37 μM ATP, 28° C. 40 minutes; read-out: IRAK-4 activity inhibition IC50", "protocol": "A 1× kinase base buffer was prepared from 50 mM HEPES, pH 7.5 and 0.0015% Brij-35. A stop buffer was prepared from 100 mM HEPES, pH 7.5, 0.015% Brij-35, 0.2% Coating Reagent #3, and 50 mM EDTA.\nTest compound was diluted to 50× of the final desired highest inhibitor concentration in reaction by 100% DMSO. 100 ul of this compound dilution was transferred to a well in a 96-well plate.\nTest compound was serially diluted by transferring 30 μl to 60 μl of 100% DMSO in the next well and so forth for a total of 10 concentrations. 100 μl of 100% DMSO was added to two empty wells for no compound control and no enzyme control in the same 96-well plate.\nA new 96-well plate was marked as intermediate plate. 5 μl of compound serial dilution was transferred from source plate to the corresponding wells of the intermediate plate. 45 μl of 1× kinase base buffer (KB buffer) was added to each well of the intermediate plate. The intermediate plate was placed for 10 min on a shaker.\n5 μl of each well was transferred from the 96-well intermediate plate to a 384-well plate in duplicates. […] A2 of the 96-well plate is transferred to A3 and A4 of the 384-well plate, and so on.\nIRAK4 and DTT in 1× kinase base buffer was added.\nAssay plate already contained 5 μl of compound in 10% DMSO. Added 10 μl of 2.5× enzyme solution to each well of the 384-well assay plate, except no enzyme control wells. […] Added 10 μl of 1× kinase base buffer to no enzyme control wells in the assay plate. Incubated at room temperature for 10 min.\nAdded 10 μl of 2.5× peptide solution to each well of the 384-well assay plate. […] Incubated at 28° C. for 40 minutes. Added 25 μl of stop buffer to stop reaction. Collected data on Caliper.\nCopied conversion % data from Caliper program. Converted conversion % values to percent inhibition values. Percent inhibition=(max−conversion %)/(max−min)*100, where “max” means the conversion % of DMSO control and “min” means the conversion % of no enzyme control.\nThe compound numbers correspond to the compound numbers in Table 1. […] “NA” stands for “not assayed.”"}
{"smiles": "C[C@@H]1CCc2sc3ncnc(N[C@H]4CC[C@H](N)CC4)c3c2C1", "note": "[Compound I-48, trans-N^1-((R)-6-methyl-5,6,7,8-tetrahydrobenzo[4,5]thieno[2,3-d]pyrimidin-4-yl)cyclohexane-1,4-diamine]", "values": [{"measurement": "IC50", "result": "< 5", "unit": "µM"}]}
{"smiles": "N[C@H]1CC[C@H](Nc2ncnc3sc4c(c23)CCCC4)CC1", "note": "[Compound I-49, trans-N^1-(5,6,7,8-tetrahydrobenzo[4,5]thieno[2,3-d]pyrimidin-4-yl)cyclohexane-1,4-diamine]", "values": [{"measurement": "IC50", "result": "< 5", "unit": "µM"}]}
{"smiles": "CN(C)[C@H]1CC[C@H](Nc2ncnc3sc4c(c23)CCCC4)CC1", "note": "[Compound I-50, trans-N^1,N^1-dimethyl-N^4-(5,6,7,8-tetrahydrobenzo[4,5]thieno[2,3-d]pyrimidin-4-yl)cyclohexane-1,4-diamine]", "values": [{"measurement": "IC50", "result": "< 5", "unit": "µM"}]}
{"smiles": "CC1CCc2sc3ncnc(N[C@H]4CC[C@H](N)CC4)c3c2C1", "note": "(stereo partly drawn) [Compound I-51, trans-N^1-(6-methyl-5,6,7,8-tetrahydrobenzo[4,5]thieno[2,3-d]pyrimidin-4-yl)cyclohexane-1,4-diamine]", "values": [{"measurement": "IC50", "result": "< 5", "unit": "µM"}]}
{"smiles": "CN[C@H]1CC[C@H](Nc2ncnc3sc4c(c23)CC(C)CC4)CC1", "note": "(stereo partly drawn) [Compound I-52, trans-N^1-methyl-N4-(6-methyl-5,6,7,8-tetrahydrobenzo[4,5]thieno[2,3-d]pyrimidin-4-yl)cyclohexane-1,4-diamine]", "values": [{"measurement": "IC50", "result": "< 5", "unit": "µM"}]}
{"smiles": "CN[C@H]1CC[C@H](Nc2ncnc3sc4c(c23)CCCC4)CC1", "note": "[Compound I-53, trans-N^1-methyl-N4-(5,6,7,8-tetrahydrobenzo[4,5]thieno[2,3-d]pyrimidin-4-yl)cyclohexane-1,4-diamine]", "values": [{"measurement": "IC50", "result": "< 5", "unit": "µM"}]}
{"smiles": "CC1CCc2sc3ncnc(N[C@H]4CC[C@H](N(C)C)CC4)c3c2C1", "note": "(stereo partly drawn) [Compound I-54, trans-N^1,N^1-dimethyl-N^4-(6-methyl-5,6,7,8-tetrahydrobenzo[4,5]thieno[2,3-d]pyrimidin-4-yl)cyclohexane-1,4-diamine]", "values": [{"measurement": "IC50", "result": "< 5", "unit": "µM"}]}
{"smiles": "CCC1CCc2c(sc3ncnc(N[C@H]4CC[C@H](N(C)C)CC4)c23)C1", "note": "(stereo partly drawn) [Compound I-55, trans-N^1-(7-ethyl-5,6,7,8-tetrahydrobenzo[4,5]thieno[2,3-d]pyrimidin-4-yl)-N^4,N^4-dimethylcyclohexane-1,4-diamine]", "values": [{"measurement": "IC50", "result": "< 5", "unit": "µM"}]}
{"smiles": "C[C@@H]1CCc2sc3ncnc(N[C@H]4CC[C@H](N(C)C)CC4)c3c2C1", "note": "[Compound I-56, trans-N^1,N^1-dimethyl-N^4-((R)-6-methyl-5,6,7,8-tetrahydrobenzo[4,5]thieno[2,3-d]pyrimidin-4-yl)cyclohexane-1,4-diamine]", "values": [{"measurement": "IC50", "result": "< 5", "unit": "µM"}]}
{"smiles": "Cc1sc2ncnc(N[C@H]3CC[C@H](N)CC3)c2c1C", "note": "[Compound I-57, trans-N^1-(5,6-dimethylthieno[2,3-d]pyrimidin-4-yl)cyclohexane-1,4-diamine]", "values": [{"measurement": "IC50", "result": "< 5", "unit": "µM"}]}
{"smiles": "CCC1CCc2c(sc3ncnc(N[C@H]4CC[C@H](NC)CC4)c23)C1", "note": "(stereo partly drawn) [Compound I-58, trans-N1-(7-ethyl-5,6,7,8-tetrahydrobenzo[4,5]thieno[2,3-d]pyrimidin-4-yl)-N4-methylcyclohexane-1,4-diamine]", "values": [{"measurement": "IC50", "result": "< 5", "unit": "µM"}]}
{"smiles": "c1nc(NCC2CCNCC2)c2c3c(sc2n1)CCC3", "note": "[Compound I-59]", "values": [{"measurement": "IC50", "result": "20 to 50", "unit": "µM"}]}
{"smiles": "c1nc(OCC2CCNCC2)c2c3c(sc2n1)CCC3", "note": "[Compound I-60]", "values": [{"measurement": "IC50", "result": "5 to 20", "unit": "µM"}]}
{"smiles": "N[C@H]1CC[C@H](Oc2ncnc3sc4c(c23)CCC4)CC1", "note": "[Compound I-61, trans-4-((6,7-dihydro-5H-cyclopenta[4,5]thieno[2,3-d]pyrimidin-4-yl)oxy)cyclohexanamine]", "values": [{"measurement": "IC50", "result": "< 5", "unit": "µM"}]}
{"smiles": "CNCC1CCN(c2ncnc3sc4c(c23)CCC4)CC1", "note": "[Compound I-62]", "values": [{"measurement": "IC50", "result": "5 to 20", "unit": "µM"}]}
{"smiles": "NCC1CCN(c2ncnc3sc4c(c23)CCC4)CC1", "note": "[Compound I-63]", "values": [{"measurement": "IC50", "result": "5 to 20", "unit": "µM"}]}
{"smiles": "CN1CCC(COc2ncnc3sc4c(c23)CCC4)CC1", "note": "[Compound I-64]", "values": [{"measurement": "IC50", "result": "20 to 50", "unit": "µM"}]}
{"smiles": "O=C(O)CN[C@H]1CC[C@H](Nc2ncnc3sc4c(c23)CCC4)CC1", "note": "[Compound I-65, 2-((trans-4-((6,7-dihydro-5H-cyclopenta[4,5]thieno[2,3-d]pyrimidin-4-yl)amino)cyclohexyl)amino)acetic acid]", "values": [{"measurement": "IC50", "result": "5 to 20", "unit": "µM"}]}
{"smiles": "CN[C@H]1CC[C@H](Oc2ncnc3sc4c(c23)CCC4)CC1", "note": "[Compound I-66, trans-4-((6,7-dihydro-5H-cyclopenta[4,5]thieno[2,3-d]pyrimidin-4-yl)oxy)-N-methylcyclohexanamine]", "values": [{"measurement": "IC50", "result": "< 5", "unit": "µM"}]}
{"smiles": "CN(C)[C@H]1CC[C@H](Oc2ncnc3sc4c(c23)CCC4)CC1", "note": "[Compound I-67, trans-4-((6,7-dihydro-5H-cyclopenta[4,5]thieno[2,3-d]pyrimidin-4-yl)oxy)-N,N-dimethylcyclohexanamine]", "values": [{"measurement": "IC50", "result": "< 5", "unit": "µM"}]}
{"smiles": "O=C(O)CN[C@H]1CC[C@H](Oc2ncnc3sc4c(c23)CCC4)CC1", "note": "[Compound I-68, 2-((trans-4-((6,7-dihydro-5H-cyclopenta[4,5]thieno[2,3-d]pyrimidin-4-yl)oxy)cyclohexyl)amino)acetic acid]", "values": [{"measurement": "IC50", "result": "5 to 20", "unit": "µM"}]}
{"smiles": "CN(C)CC1CCN(c2ncnc3sc4c(c23)CCC4)CC1", "note": "[Compound I-69]", "values": [{"measurement": "IC50", "result": "> 50", "unit": "µM"}]}
{"smiles": "CCN[C@H]1CC[C@H](Nc2ncnc3sc4c(c23)CCC4)CC1", "note": "[Compound I-70]", "values": [{"measurement": "IC50", "result": "< 5", "unit": "µM"}]}
{"smiles": "CCN[C@H]1CC[C@H](Nc2ncnc3sc4c(c23)CCC4)CC1", "note": "[Compound I-71, trans-N^1-(6,7-dihydro-5H-cyclopenta[4,5]thieno[2,3-d]pyrimidin-4-yl)-N^4-ethylcyclohexane-1,4-diamine]", "values": [{"measurement": "IC50", "result": "< 5", "unit": "µM"}]}
{"smiles": "CCN(CC)[C@H]1CC[C@H](Nc2ncnc3sc4c(c23)CCC4)CC1", "note": "[Compound I-72, trans-N^1-(6,7-dihydro-5H-cyclopenta[4,5]thieno[2,3-d]pyrimidin-4-yl)-N^4,N^4-diethylcyclohexane-1,4-diamine]", "values": [{"measurement": "IC50", "result": "< 5", "unit": "µM"}]}
{"smiles": "CN(Cc1c(F)cccc1Cl)[C@H]1CC[C@H](Nc2ncnc3sc4c(c23)CCC4)CC1", "note": "[Compound I-99, 1-N-[(2-chloro-6-fluorophenyl)methyl]-1-N-methyl-4-N-[7-thia-9,11-diazatricyclo[6.4.0.0^[2,6]]dodeca-1(8),2(6),9,11-tetraen-12-yl]cyclohexane-1,4-diamine]", "values": [{"measurement": "IC50", "result": "< 5", "unit": "µM"}]}
{"smiles": "CN(Cc1ccncc1Cl)[C@H]1CC[C@H](Nc2ncnc3sc4c(c23)CCC4)CC1", "note": "[Compound I-100, 1-N-[(3-chloropyridin-4-yl)methyl]-1-N-methyl-4-N-[7-thia-9,11-diazatricyclo[6.4.0.0^[2,6]]dodeca-1(8),2(6),9,11-tetraen-12-yl]cyclohexane-1,4-diamine]", "values": [{"measurement": "IC50", "result": "< 5", "unit": "µM"}]}
{"smiles": "CN(Cc1ccco1)[C@H]1CC[C@H](Nc2ncnc3sc4c(c23)CCC4)CC1", "note": "[Compound I-101, 1-N-(furan-2-ylmethyl)-1-N-methyl-4-N-[7-thia-9,11-diazatricyclo[6.4.0.0^[2,6]]dodeca-1(8),2(6),9,11-tetraen-12-yl]cyclohexane-1,4-diamine]", "values": [{"measurement": "IC50", "result": "< 5", "unit": "µM"}]}
{"smiles": "CN(C(=O)Cc1cccc(Cl)c1)[C@H]1CC[C@H](Nc2ncnc3sc4c(c23)CCC4)CC1", "note": "[Compound I-102, 2-(3-chlorophenyl)-N-methyl-N-[4-([7-thia-9,11-diazatricyclo[6.4.0.0^[2,6]]dodeca-1(8),2(6),9,11-tetraen-12-yl]amino)cyclohexyl]acetamide]", "values": [{"measurement": "IC50", "result": "20 to 50", "unit": "µM"}]}
{"smiles": "CN(C(=O)Cc1ccccn1)[C@H]1CC[C@H](Nc2ncnc3sc4c(c23)CCC4)CC1", "note": "[Compound I-103, N-methyl-2-(pyridin-2-yl)-N-[4-([7-thia-9,11-diazatricyclo[6.4.0.0^[2,6]]dodeca-1(8),2(6),9,11-tetraen-12-yl]amino)cyclohexyl]acetamide]", "values": [{"measurement": "IC50", "result": "20 to 50", "unit": "µM"}]}
{"smiles": "CN(Cc1ncccc1F)[C@H]1CC[C@H](Nc2ncnc3sc4c(c23)CCC4)CC1", "note": "[Compound I-104, 1-N-[(3-fluoropyridin-2-yl)methyl]-1-N-methyl-4-N-[7-thia-9,11-diazatricyclo[6.4.0.0^[2,6]]dodeca-1(12),2(6),8,10-tetraen-12-yl]cyclohexane-1,4-diamine]", "values": [{"measurement": "IC50", "result": "< 5", "unit": "µM"}]}
{"smiles": "CN(Cc1cnccn1)[C@H]1CC[C@H](Nc2ncnc3sc4c(c23)CCC4)CC1", "note": "[Compound I-105]", "values": [{"measurement": "IC50", "result": "< 5", "unit": "µM"}]}
